Laboratory results as given in ChEMBL document CHEMBL2401623, “Synthesis and antitumor activity of novel 3,4-diaryl squaric acid analogs” (Eur J Med Chem, 2013).
Activity calls are given as the source filed them. The rule behind the calls is not given here.

Key:
[1] = system: MCF7; assay: Cytotoxicity against human MCF7 cells assessed as growth inhibition after 72 hrs by MTT assay; assay type: functional, cell-based; conditions: MCF7, 72 h
[2] = system: HepG2; assay: Cytotoxicity against human HepG2 cells assessed as growth inhibition after 72 hrs by MTT assay; assay type: functional, cell-based; conditions: HepG2, 72 h
[3] = system: Bel-7402; assay: Ratio of combretastatin A-4 IC50 to compound IC50 for human Bel7402 cells; assay type: functional
[4] = system: Bel-7402; assay: Cytotoxicity against human Bel7402 cells assessed as growth inhibition after 72 hrs by MTT assay; assay type: functional, cell-based; conditions: Bel-7402, 72 h
[5] = system: SMMC-7721; assay: Cytotoxicity against human SMMC7721 cells assessed as growth inhibition after 72 hrs by MTT assay; assay type: functional, cell-based; conditions: SMMC-7721, 72 h
[6] = system: CCRF-CEM; assay: Cytotoxicity against human CEM cells assessed as growth inhibition after 72 hrs by MTT assay; assay type: functional, cell-based
[7] = system: HCT-116; assay: Cytotoxicity against human HCT116 cells assessed as growth inhibition after 72 hrs by MTT assay; assay type: functional, cell-based; conditions: HCT-116, 72 h
[8] = system: MCF7; assay: Ratio of combretastatin A-4 IC50 to compound IC50 for human MCF7 cells; assay type: functional
[9] = system: SW1990; assay: Cytotoxicity against human SW1990 cells assessed as growth inhibition after 72 hrs by MTT assay; assay type: functional, cell-based; conditions: SW1990, 72 h
[10] = system: MCF7; assay: Cell cycle arrest in human MCF7 cells assessed as accumulation at G2/M phase at 0.02 uM after 24 hrs by propidium iodide staining-based flow cytometric analysis; assay type: functional
[11] = system: MCF7; assay: Cell cycle arrest in human MCF7 cells assessed as accumulation at G2/M phase after 24 hrs by propidium iodide staining-based flow cytometric analysis; assay type: functional

COc1ccc(-c2c(-c3cc(OC)c(OC)c(OC)c3)c(=O)c2=O)cc1O
IC50 [1]: 6 nM
IC50 [2]: 14 nM
Ratio IC50 [3]: 5
IC50 [4]: 309 nM
IC50 [5]: 1520 nM
IC50 [6]: 1.7 nM
IC50 [7]: 5 nM
Ratio IC50 [8]: 5
IC50 [9]: 245 nM
Activity [10]: Active

COc1cc(-c2c(-c3cc(OC)c(OC)c(OC)c3)c(=O)c2=O)cc(OC)c1OC
IC50 [6]: > 20000 nM

COc1ccc(-c2c(-c3cc(OC)c(OC)c(OC)c3)c(=O)c2=O)cc1Cl
IC50 [6]: 136 nM

COc1ccc(-c2c(-c3cc(OC)c(OC)c(OC)c3)c(=O)c2=O)cc1[N+](=O)[O-]
IC50 [6]: 12200 nM

COc1ccc(-c2c(-c3cc(OC)c(OC)c(OC)c3)c(=O)c2=O)cc1OC
IC50 [6]: 210 nM

COc1ccc(-c2c(-c3cc(OC)c(OC)c(OC)c3)c(=O)c2=O)cc1F
IC50 [1]: 5 nM
IC50 [2]: 105 nM
IC50 [4]: 13 nM
IC50 [5]: 176 nM
IC50 [6]: 11.5 nM
IC50 [7]: 81 nM
IC50 [9]: 27 nM

COc1ccc(-c2c(-c3ccc(OC)c(OC)c3OC)c(=O)c2=O)cc1
IC50 [6]: 2480 nM

COc1cc(-c2c(-c3ccc4cc[nH]c4c3)c(=O)c2=O)cc(OC)c1OC
IC50 [2]: 6 nM
IC50 [4]: 3620 nM
IC50 [5]: 2540 nM
IC50 [6]: 6.6 nM

COc1ccc(-c2c(-c3ccc(OC)cc3)c(=O)c2=O)cc1
IC50 [6]: > 20000 nM

COc1ccc(/C=C\c2cc(OC)c(OC)c(OC)c2)cc1O [COMBRETASTATIN A4]
IC50 [1]: 29 nM
IC50 [6]: 1.6 nM

COc1cc(-c2c(-c3ccccc3)c(=O)c2=O)cc(OC)c1OC
IC50 [6]: 16100 nM

COc1ccc(-c2c(-c3ccc(OC)c(OC)c3)c(=O)c2=O)cc1
IC50 [6]: 12700 nM

COc1ccc(-c2c(-c3cc(OC)c(OC)c(OC)c3)c(=O)c2=O)cc1
IC50 [6]: 16 nM

COc1ccc(-c2c(-c3ccc(OC)cc3OC)c(=O)c2=O)cc1
IC50 [6]: 1510 nM

COc1ccc(-c2c(-c3cc(OC)c(OC)c(OC)c3)c(=O)c2=O)c(OC)c1
IC50 [6]: 1770 nM

COc1cc(-c2c(-c3ccc4[nH]ccc4c3)c(=O)c2=O)cc(OC)c1OC
IC50 [2]: 6 nM
IC50 [4]: 1500 nM
IC50 [5]: 646 nM
IC50 [6]: 15.4 nM

COc1ccc(-c2c(-c3c(OC)cc(OC)cc3OC)c(=O)c2=O)cc1
IC50 [6]: 850 nM

COc1ccc(-c2c(-c3cc(OC)c(OC)c(OC)c3)c(=O)c2=O)cc1N
Activity [11]: Active
IC50 [1]: 164 nM
IC50 [2]: 5 nM
Ratio IC50 [3]: 122
IC50 [4]: 14 nM
IC50 [5]: 190 nM
IC50 [6]: 1.4 nM
IC50 [7]: 5 nM
IC50 [9]: 1770 nM

COc1ccc(-c2c(-c3cc(OC)c(OC)c(OC)c3)c(=O)c2=O)cc1OC(C)=O
IC50 [6]: 1.8 nM
